Assay results: PubChem BioAssay AID248 (DTP/NCI, 2004)
“And” between values parts separate entries of the source, which are not always exact repeats. Equal values may be shown once. Inconclusive results and toxic doses are left out.

Test system: L1210 leukemia ip in BDF1 mice, survival T/C
Test: NCI In Vivo Anticancer Drug Screen. Data for tumor model L1210 Leukemia (intraperitoneal) in B6D2F1 (BDF1) mice
Settings: endpoint: mean survival time, higher = longer survival
Outline: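 Read-out is survival time, reported as the treated-group measurement over the vehicle-control measurement.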

[1] = dose: 100.0 mg/kg/injection, schedule: Q04DX003 (ip), vehicle: Klucel (hydroxypropylcellulose) (HPC)
[2] = dose: 100.0 mg/kg/injection, schedule: Q04DX003 (ip), vehicle: saline with Tween-80
[3] = dose: 100.0 mg/kg/injection, schedule: Q04DX002 (ip), vehicle: Klucel (hydroxypropylcellulose) (HPC)
[4] = dose: 200.0 mg/kg/injection, schedule: Q04DX002 (ip), vehicle: Klucel (hydroxypropylcellulose) (HPC)
[5] = dose: 400.0 mg/kg/injection, schedule: Q04DX002 (ip), vehicle: Klucel (hydroxypropylcellulose) (HPC)
[6] = dose: 100.0 mg/kg/injection, schedule: Q01DX009 (ip), vehicle: Klucel (hydroxypropylcellulose) (HPC)
[7] = dose: 200.0 mg/kg/injection, schedule: Q01DX009 (ip), vehicle: Klucel (hydroxypropylcellulose) (HPC)
[8] = dose: 200.0 mg/kg/injection, schedule: Q04DX003 (ip), vehicle: Klucel (hydroxypropylcellulose) (HPC)
[9] = dose: 400.0 mg/kg/injection, schedule: Q01DX009 (ip), vehicle: Klucel (hydroxypropylcellulose) (HPC)
[10] = dose: 400.0 mg/kg/injection, schedule: Q04DX003 (ip), vehicle: Klucel (hydroxypropylcellulose) (HPC)
[11] = dose: 200.0 mg/kg/injection, schedule: Q04DX003 (ip), vehicle: saline with Tween-80
[12] = dose: 400.0 mg/kg/injection, schedule: Q04DX003 (ip), vehicle: saline with Tween-80
[13] = dose: 100.0 mg/kg/injection, schedule: Q01DX001 (ip), vehicle: saline
[14] = dose: 200.0 mg/kg/injection, schedule: Q01DX001 (ip), vehicle: saline
[15] = dose: 400.0 mg/kg/injection, schedule: Q01DX001 (ip), vehicle: saline
[16] = dose: 100.0 mg/kg/injection, schedule: Q01DX009 (ip), vehicle: saline with Tween-80
[17] = dose: 200.0 mg/kg/injection, schedule: Q01DX009 (ip), vehicle: saline with Tween-80
[18] = dose: 400.0 mg/kg/injection, schedule: Q01DX009 (ip), vehicle: saline with Tween-80

Cc1cc(C)c(N)c(Br)c1
T/C (dose: 25.0 mg/kg/injection, schedule: Q01DX009 (ip), vehicle: saline with Tween-80): 88 % of control
T/C (dose: 25.0 mg/kg/injection, schedule: Q04DX003 (ip), vehicle: Klucel (hydroxypropylcellulose) (HPC)): 95 % of control
T/C (dose: 50.0 mg/kg/injection, schedule: Q01DX009 (ip), vehicle: saline with Tween-80): 87 % of control
T/C (dose: 50.0 mg/kg/injection, schedule: Q04DX003 (ip), vehicle: Klucel (hydroxypropylcellulose) (HPC)): 97 % of control
T/C (dose: 100.0 mg/kg/injection, schedule: Q01DX001 (ip), vehicle: Klucel (hydroxypropylcellulose) (HPC)): 95 % of control
T/C [1]: 93 % of control and 90 % of control
T/C [2]: 91 % of control
T/C (dose: 200.0 mg/kg/injection, schedule: Q01DX001 (ip), vehicle: Klucel (hydroxypropylcellulose) (HPC)): 97 % of control

COc1cccc(C2NC(=O)CCC2N)c1OC (centres undefined)
T/C (dose: 100.0 mg/kg/injection, schedule: Q04DX002 (ip), vehicle: saline with Tween-80): 105 % of control
T/C (dose: 200.0 mg/kg/injection, schedule: Q04DX002 (ip), vehicle: saline with Tween-80): 102 % of control
T/C (dose: 400.0 mg/kg/injection, schedule: Q04DX002 (ip), vehicle: saline with Tween-80): 97 % of control

O=C(O)/C=C/C(=O)c1ccccc1
T/C (dose: 50.0 mg/kg/injection, schedule: Q01DX001 (ip), vehicle: carboxymethylcellulose (CMC)): 109 % of control

CNC(=O)Oc1cc2ccccc2cc1C(=O)Nc1ccccc1
T/C [3]: 97 % of control
T/C [4]: 100 % of control
T/C [5]: 113 % of control

C1CCC(C2=NC3CCCCC3SC2)CC1 (centres undefined)
T/C (dose: 100.0 mg/kg/injection, schedule: Q04DX002 (sc), vehicle: olive oil, sesame oil, peanut oil): 103 % of control
T/C (dose: 200.0 mg/kg/injection, schedule: Q04DX002 (sc), vehicle: olive oil, sesame oil, peanut oil): 107 % of control
T/C (dose: 400.0 mg/kg/injection, schedule: Q04DX002 (sc), vehicle: olive oil, sesame oil, peanut oil): 96 % of control

OC(CBr)c1ccc(Cl)c(Cl)c1 (centres undefined)
T/C [6]: 103 % of control
T/C [1]: 97 % of control
T/C [7]: 105 % of control
T/C [8]: 103 % of control
T/C [9]: 97 % of control
T/C [10]: 103 % of control

Cn1c(=O)c2c(ncn2CC(O)CO)n(C)c1=O (centres undefined) (tested in a mixture with another compound)
T/C [2]: 101 % of control
T/C [11]: 98 % of control
T/C [12]: 95 % of control

CC(=O)N1C(=O)/C(=C\c2cc3c(cc2Br)OCO3)c2cc3c(cc21)OCO3
T/C (dose: 50.0 mg/kg/injection, schedule: Q01DX001 (ip), vehicle: saline): 118 % of control
T/C [13]: 100 % of control
T/C [14]: 106 % of control
T/C [15]: 106 % of control

O=C(O)COc1ccccc1F
T/C [3]: 113 % of control
T/C [4]: 98 % of control
T/C [5]: 98 % of control

CCC[As](=O)(O)CC
T/C (dose: 100.0 mg/kg/injection, schedule: Q01DX009 (ip), vehicle: saline): 103 % of control
T/C (dose: 200.0 mg/kg/injection, schedule: Q01DX009 (ip), vehicle: saline): 105 % of control

C(=NCC(CCN1CCCCC1)(CCN1CCCCC1)c1cccc2ccccc12)C(CCN1CCCCC1)(CCN1CCCCC1)c1cccc2ccccc12
T/C (dose: 5.0 mg/kg/injection, schedule: Q04DX003 (ip), vehicle: Klucel (hydroxypropylcellulose) (HPC)): 119 % of control
T/C (dose: 10.0 mg/kg/injection, schedule: Q04DX003 (ip), vehicle: Klucel (hydroxypropylcellulose) (HPC)): 114 % of control
T/C (dose: 20.0 mg/kg/injection, schedule: Q04DX003 (ip), vehicle: Klucel (hydroxypropylcellulose) (HPC)): 110 % of control

S=C(S)Nc1ccc(Cc2ccc(NC(=S)S)cc2)cc1
T/C [2]: 95 % of control
T/C [11]: 91 % of control
T/C [12]: 98 % of control

CC[n+]1ccc(-c2ccc(NC(=O)c3ccc(C(=O)Nc4ccc(-c5cc[n+](CC)cc5)cc4)cc3)cc2)cc1
T/C (dose: 2.5 mg/kg/injection, schedule: Q01DX015 (ip), vehicle: carboxymethylcellulose (CMC)): 224 % of control
T/C (dose: 3.7 mg/kg/injection, schedule: Q01DX001 (ip), vehicle: carboxymethylcellulose (CMC)): 118 % of control
T/C (dose: 5.0 mg/kg/injection, schedule: Q01DX015 (ip), vehicle: carboxymethylcellulose (CMC)): 157 % of control
T/C (dose: 7.5 mg/kg/injection, schedule: Q01DX001 (ip), vehicle: carboxymethylcellulose (CMC)): 176 % of control
T/C (dose: 10.0 mg/kg/injection, schedule: Q01DX015 (ip), vehicle: carboxymethylcellulose (CMC)): 123 % of control
T/C (dose: 15.0 mg/kg/injection, schedule: Q01DX001 (ip), vehicle: carboxymethylcellulose (CMC)): 163 % of control
T/C (dose: 20.0 mg/kg/injection, schedule: Q01DX015 (ip), vehicle: carboxymethylcellulose (CMC)): 94 % of control
T/C (dose: 30.0 mg/kg/injection, schedule: Q01DX001 (ip), vehicle: carboxymethylcellulose (CMC)): 177 % of control and 194 % of control
T/C (dose: 30.0 mg/kg/injection, schedule: Q01DX015 (ip), vehicle: carboxymethylcellulose (CMC)): 86 % of control
T/C (dose: 40.0 mg/kg/injection, schedule: Q01DX001 (ip), vehicle: carboxymethylcellulose (CMC)): 192 % of control and 296 % of control
T/C (dose: 60.0 mg/kg/injection, schedule: Q01DX001 (ip), vehicle: carboxymethylcellulose (CMC)): 211 % of control and 305 % of control and 307 % of control
T/C (dose: 90.0 mg/kg/injection, schedule: Q01DX001 (ip), vehicle: carboxymethylcellulose (CMC)): 157 % of control and 228 % of control
T/C (dose: 150.0 mg/kg/injection, schedule: Q01DX001 (ip), vehicle: carboxymethylcellulose (CMC)): 103 % of control
T/C (dose: 225.0 mg/kg/injection, schedule: Q01DX001 (ip), vehicle: carboxymethylcellulose (CMC)): 91 % of control

C/C=C/C(=O)Nc1cccc(O)c1
T/C [16]: 93 % of control
T/C [17]: 91 % of control
T/C [18]: 93 % of control

Cc1nc(C)c(C)s1
T/C [6]: 95 % of control
T/C [1]: 102 % of control
T/C [7]: 95 % of control
T/C [8]: 100 % of control
T/C [9]: 90 % of control
T/C [10]: 104 % of control

NNC(=O)NO
T/C (dose: 33.0 mg/kg/injection, schedule: Q01DX009 (ip), vehicle: saline): 114 % of control
T/C (dose: 75.0 mg/kg/injection, schedule: Q01DX001 (ip), vehicle: saline): 101 % of control
T/C (dose: 150.0 mg/kg/injection, schedule: Q01DX001 (ip), vehicle: saline): 103 % of control

BrC1(Br)C2CCCCC21 (centres undefined)
T/C (dose: 100.0 mg/kg/injection, schedule: Q04DX003 (ip), vehicle: acetone): 90 % of control
T/C (dose: 200.0 mg/kg/injection, schedule: Q04DX003 (ip), vehicle: acetone): 98 % of control and 90 % of control

NC(Cc1c[nH]c2ccccc12)C(=O)OCc1ccccc1 (centres undefined)
T/C (dose: 6.25 mg/kg/injection, schedule: Q01DX009 (ip), vehicle: water): 101 % of control
T/C (dose: 12.5 mg/kg/injection, schedule: Q01DX009 (ip), vehicle: water): 99 % of control
T/C (dose: 25.0 mg/kg/injection, schedule: Q01DX009 (ip), vehicle: water): 98 % of control and 106 % of control
T/C (dose: 50.0 mg/kg/injection, schedule: Q01DX009 (ip), vehicle: water): 107 % of control
T/C [16]: 104 % of control
T/C (dose: 100.0 mg/kg/injection, schedule: Q01DX009 (ip), vehicle: water): 97 % of control and 86 % of control
T/C [17]: 104 % of control
T/C [18]: 93 % of control

ClC1=C(Cl)C2(Cl)C(Cl)CC1(Cl)C2(Cl)Cl (centres undefined)
T/C [13]: 97 % of control
T/C (dose: 100.0 mg/kg/injection, schedule: Q04DX003 (ip), vehicle: saline): 110 % of control
T/C [14]: 90 % of control
T/C (dose: 200.0 mg/kg/injection, schedule: Q04DX003 (ip), vehicle: saline): 96 % of control
T/C [15]: 97 % of control

O=C(c1ccccc1)c1ccccc1
T/C (dose: 50.0 mg/kg/injection, schedule: Q01DX009 (ip), vehicle: Klucel (hydroxypropylcellulose) (HPC)): 96 % of control
T/C (dose: 75.0 mg/kg/injection, schedule: Q04DX003 (ip), vehicle: saline): 100 % of control
T/C [6]: 101 % of control
T/C (dose: 150.0 mg/kg/injection, schedule: Q04DX003 (ip), vehicle: saline): 100 % of control
T/C [7]: 97 % of control
T/C (dose: 300.0 mg/kg/injection, schedule: Q04DX003 (ip), vehicle: saline): 104 % of control
